Results taken from article PMC8854719, “Phase 1A/1B dose-escalation and -expansion study to evaluate the safety, pharmacokinetics, food effects and antitumor activity of pamiparib in advanced solid tumours” (British Journal of Cancer, 2021).

System: advanced solid tumours
Test: Tumour response and PFS per RECIST v1.1, overall efficacy-evaluable population
Format: in vivo, human
Description: Pamiparib in plasma was measured using a validated liquid chromatography-tandem–mass spectrometry assay with a lower limit of quantification of 1.0 ng/mL. The collection schedule for blood samples used to assess the PK profile is presented in the Supplemental Appendix. Summary PK parameters, including area under the concentration-time curve from time 0 to 9 h (AUC0-9) or infinity (AUC0-inf), maximal plasma concentration (Cmax) and time to maximal plasma concentration (Tmax), were estimated. The pharmacodynamic (PD) activity of pamiparib was explored through the evaluation of poly(ADP-ribose [PAR]) formation in peripheral blood mononuclear cells (PBMCs) after pamiparib administration. The schedule for blood sample collection (PK and PBMCs) and additional assessment information for PAR levels in PBMCs and pharmacodynamic activity is presented in the Supplemental Appendix. Antitumor activity was assessed by radiographic imaging (computed tomography or magnetic resonance imaging) during screening, within 28 days of first pamiparib dose, every 6 weeks in the first 12 months and every 9 weeks thereafter.
Tumour response was evaluated by RECIST v1.1. For patients with ovarian cancer, tumour response was assessed per RECIST v1.1 and by Gynecologic Cancer Intergroup (GCIG) CA-125 criteria. Tumour response for patients with prostate cancer was assessed by Prostate Cancer Clinical Trials Working Group 2 (PCWG2) criteria. Objective response rate (ORR) was defined as the proportion of patients achieving a confirmed complete response (CR) or partial response (PR) on study treatment. Blood tumour antigens (e.g., carcinoembryonic antigen for colorectal cancer, CA-125 for ovarian cancer and prostate-specific antigen [PSA] for mCRPC) were assessed during screening, every 6 weeks after the first pamiparib dose in the first 12 months, and every 9 weeks thereafter.
The safety population comprised all patients in the dose-escalation and dose-expansion phases who received at least one dose of pamiparib (Supplementary Table S2). Patients in the safety analysis set for whom valid pamiparib PK parameters were estimated and for whom evaluable PD results were available represented the PK population and the PD population, respectively. The efficacy-evaluable population included patients in the safety analysis set who had at least one evaluable postbaseline tumour assessment or those who discontinued due to clinical disease progression or early death before tumour assessment could be performed. The EOC efficacy-evaluable population was a subset of the overall efficacy-evaluable population that included patients with EOC from both the dose-escalation and dose-expansion phases. Patients in the dose-expansion phase without measurable disease at baseline per RECIST v1.1 were excluded from the efficacy-evaluable population.
Descriptive statistics were used to summarise all study data (see Supplemental Appendix). Progression-free survival (PFS) and event-free rates were estimated using the Kaplan–Meier method along with the corresponding 95% CI. Pharmacokinetic parameters were derived using standard non-compartmental methods with Phoenix WinNonlin Version 6.4 or higher (Pharsight Corp., Mountain View, California).

[1] = BID efficacy-evaluable population (n = 77)
[2] = Total BID dosage group, overall efficacy-evaluable (n = 77)
[3] = dose escalation, 2.5 mg BID (n=4)
[4] = dose escalation, 5.0 mg BID (n=3)
[5] = dose escalation, 10 mg BID (n=3)

SMILES: C[C@]12CCCN1CC1=NNC(=O)c3cc(F)cc4[nH]c2c1c34 [pamiparib]
- Median duration of response (BID dosage group): 14.9 months
- Confirmed CRs [1]: 5.2%
- Confirmed PRs [1]: 22.1%
- Confirmed CRs (in words) (QD dosage group (n=18)): no confirmed CRs
- Confirmed ORR (QD dosage group (n=18)): 11.1%
- Confirmed PRs (QD dosage group (n=18)): 11.1%
- Event-free rate, 1 year (Total (N=95)): 32.7 (21.73-44.18) % (95% CI)
- Event-free rate, 2 years (Total (N=95)): 11.0 (4.13-21.80) % (95% CI)
- PFS censored: New anticancer therapy received before event (Total (N=95)): 1 (1.1) n (%)
- PFS censored: No disease progression or death (Total (N=95)): 27 (28.4) n (%)
- PFS censored: No postbaseline assessment (Total (N=95)): 5 (5.3) n (%)
- PFS censored: ≥2 consecutive missed assessments (Total (N=95)): 2 (2.1) n (%)
- PFS events: Death (Total (N=95)): 10 (10.5) n (%)
- PFS events: Disease progression (Total (N=95)): 50 (52.6) n (%)
- PFS: Censored (Total (N=95)): 35 (36.8) n (%)
- PFS: Events (Total (N=95)): 60 (63.2) n (%)
- Progression-Free Survival, Median (Total (N=95)): 5.5 (4.14-8.31) months (95% CI)
- Event-free rate, 1 year (Total BID Dosage Group (n=77)): 34.0 (21.72-46.58) % (95% CI)
- Event-free rate, 2 years (Total BID Dosage Group (n=77)): 12.2 (4.52-24.01) % (95% CI)
- PFS censored: New anticancer therapy received before event (Total BID Dosage Group (n=77)): 1 (1.3) n (%)
- PFS censored: No disease progression or death (Total BID Dosage Group (n=77)): 20 (26.0) n (%)
- PFS censored: No postbaseline assessment (Total BID Dosage Group (n=77)): 5 (6.5) n (%)
- PFS censored: ≥2 consecutive missed assessments (Total BID Dosage Group (n=77)): 2 (2.6) n (%)
- PFS events: Death (Total BID Dosage Group (n=77)): 7 (9.1) n (%)
- PFS events: Disease progression (Total BID Dosage Group (n=77)): 42 (54.5) n (%)
- PFS: Censored (Total BID Dosage Group (n=77)): 28 (36.4) n (%)
- PFS: Events (Total BID Dosage Group (n=77)): 49 (63.6) n (%)
- Progression-Free Survival, Median (Total BID Dosage Group (n=77)): 6.9 (4.14-9.89) months (95% CI)
- Best overall response: Complete response [2]: 4 (5.2) n (%)
- Best overall response: Not assessed [2]: 7 (9.1) n (%)
- Best overall response: Not evaluable [2]: 1 (1.3) n (%)
- Best overall response: Partial response [2]: 17 (22.1) n (%)
- Best overall response: Progressive disease [2]: 11 (14.3) n (%)
- Best overall response: Stable disease [2]: 37 (48.1) n (%)
- Clinical benefit rate [2]: 39.0 (28.1–50.8) % (95% CI)
- Disease control rate [2]: 75.3 (64.2–84.4) % (95% CI)
- Objective response rate [2]: 27.3 (17.7–38.6) % (95% CI)
- Event-free rate, 1 year (Total QD Dosage Group (n=18)): 30.1 (8.73-55.34) % (95% CI)
- Event-free rate, 2 years (Total QD Dosage Group (n=18)): 0.0 (NE-NE) % (95% CI)
- PFS censored: New anticancer therapy received before event (Total QD Dosage Group (n=18)): 0 (0) n (%)
- PFS censored: No disease progression or death (Total QD Dosage Group (n=18)): 7 (38.9) n (%)
- PFS censored: No postbaseline assessment (Total QD Dosage Group (n=18)): 0 (0) n (%)
- PFS censored: ≥2 consecutive missed assessments (Total QD Dosage Group (n=18)): 0 (0) n (%)
- PFS events: Death (Total QD Dosage Group (n=18)): 3 (16.7) n (%)
- PFS events: Disease progression (Total QD Dosage Group (n=18)): 8 (44.4) n (%)
- PFS: Censored (Total QD Dosage Group (n=18)): 7 (38.9) n (%)
- PFS: Events (Total QD Dosage Group (n=18)): 11 (61.1) n (%)
- Progression-Free Survival, Median (Total QD Dosage Group (n=18)): 4.9 (3.22-12.32) months (95% CI)
- Best overall response: Complete response [3]: 0 (0.0) n (%)
- Best overall response: Not assessed [3]: 2 (50.0) n (%)
- Best overall response: Not evaluable [3]: 0 (0.0) n (%)
- Best overall response: Partial response [3]: 1 (25.0) n (%)
- Best overall response: Progressive disease [3]: 1 (25.0) n (%)
- Best overall response: Stable disease [3]: 0 (0.0) n (%)
- Clinical benefit rate [3]: 25.0 (0.63-80.59) % (95% CI)
- Disease control rate [3]: 25.0 (0.63-80.59) % (95% CI)
- Objective response rate [3]: 25.0 (0.63-80.59) % (95% CI)
- Best overall response: Complete response [4]: 0 (0.0) n (%)
- Best overall response: Not assessed [4]: 1 (33.3) n (%)
- Best overall response: Not evaluable [4]: 0 (0.0) n (%)
- Best overall response: Partial response [4]: 1 (33.3) n (%)
- Best overall response: Progressive disease [4]: 0 (0.0) n (%)
- Best overall response: Stable disease [4]: 1 (33.3) n (%)
- Clinical benefit rate [4]: 33.3 (0.84-90.57) % (95% CI)
- Objective response rate [4]: 33.3 (0.84-90.57) % (95% CI)
- Best overall response: Complete response [5]: 0 (0.0) n (%)
- Best overall response: Not assessed [5]: 0 (0.0) n (%)
